In patent publication US20200392126A1, “ISOXAZOLYL COMPOUNDS AS RECEPTOR MODULATING COMPOUNDS AND METHODS AND USES THEREOF” (BIONOMICS LIMITED, priority 2017, published 2020) one finds IC50 data, which are given here for seven compounds.

Usually pIC50 stands for the IC50 on a negative log10 scale, so that one unit is a factor of ten.

pIC50: −log10 of the molar value.

The first experiment deals with T1, hnAChR α7/ric3 (Homo sapiens, UniProt P36544).
T1 construct: expressed in transfected cells
T1 sequence (P36544 23-502): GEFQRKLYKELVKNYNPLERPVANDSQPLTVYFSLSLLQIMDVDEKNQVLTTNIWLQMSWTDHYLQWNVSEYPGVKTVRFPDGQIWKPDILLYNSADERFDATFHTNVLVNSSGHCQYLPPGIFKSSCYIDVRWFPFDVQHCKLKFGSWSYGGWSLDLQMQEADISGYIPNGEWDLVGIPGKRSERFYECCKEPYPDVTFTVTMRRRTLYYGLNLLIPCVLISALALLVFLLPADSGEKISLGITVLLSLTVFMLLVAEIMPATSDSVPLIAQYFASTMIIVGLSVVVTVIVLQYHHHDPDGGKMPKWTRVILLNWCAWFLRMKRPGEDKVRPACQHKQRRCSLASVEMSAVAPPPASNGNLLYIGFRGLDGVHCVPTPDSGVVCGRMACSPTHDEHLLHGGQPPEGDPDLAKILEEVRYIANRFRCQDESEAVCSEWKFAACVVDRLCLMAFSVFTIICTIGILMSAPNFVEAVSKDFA
In words: IonFlux HT electrophysiological recording of hnAChR α7/ric3 currents, inhibition of ACh (200 μM, EC80) peak current. The experiment is classed as cell-based.
Details: not given
The method, then:
All wells included a final DMSO concentration of 0.33% including all control wells.
The solutions for recording hnAChR α7/ric3 currents were:
All recordings were obtained from a holding potential of −60 mV.
Compounds were assayed using bump-in protocol. The compound addition sequence that was used for all additions was the same for all assays. One addition of the EC80 concentration of ACh (200 μM) was added to establish baseline response. The test compounds were tested on cells in increasing concentrations of 0.12, 0.37, 1.1, 3.3, 10 μM±200 μM ACh for all compounds. Each compound was applied for one minutes followed by the addition of 200 μM ACh for 1 second.
Peak inward currents in response to the ACh additions in the presence of increasing concentrations of compound were measured.
Potentiation of ACh Response=(I^Compound^+^ACh/I^ACh)
All data were first exported to an Excel compatible data file and then analyzed using Graph Pad Prism software.
For the compound `Cc1nocc1S(=O)(=O)N1CCN(c2ccc(F)cc2)CC1` [Compound 8, 4-(4-(4-Fluorophenyl)piperazin-1-ylsulfonyl)-3-methylisoxazole], the pIC50 is 5.66.

Take `Cc1nocc1S(=O)(=O)NC1(c2ccccc2)CCCCC1` [Compound 1, 3-Methyl-N-(1-phenylcyclohexyl)isoxazole-4-sulfonamide]: the pIC50 was 5.24.

The same experiment, now with this note: hnAChR α7/ric3; 0.12-10 μM compound, 1 min preincubation, then 200 μM ACh for 1 s; holding potential −60 mV; read-out: IC50.
Regarding `Cc1nocc1S(=O)(=O)N1CCc2ccccc2CC1` [Compound 11, 3-Methyl-4-((1,2,4,5-tetrahydro-3H-benzo[d]azepin-3-yl)sulfonyl)isoxazole], the pIC50 was 5.54.

As for `Cc1nocc1S(=O)(=O)NCCc1ccc(F)cc1` [Compound 3, N-(4-Fluorophenethyl)-3-methylisoxazole-4-sulfonamide], the pIC50 was 5.66.

With `Cc1nocc1S(=O)(=O)NCCc1ccccc1` [Compound 2, 3-Methyl-N-phenethylisoxazole-4-sulfonamide], the pIC50 was 5.77.

For `Cc1nocc1S(=O)(=O)N1CCC(c2ccc(F)cc2)CC1` [Compound 7], the negative-log IC50 (pIC50) is 6.40.

Take `Cc1nocc1S(=O)(=O)N1CCN(c2ccccn2)CC1` [Compound 10, 3-Methyl-4-(4-(pyridin-2-yl)piperazin-1-ylsulfonyl)isoxazole]: the pIC50 is 5.19.
